According to patent US10035778B2, “Meta-azacyclic amino benzoic acid derivatives as pan integrin antagonists” (Saint Louis University, priority 2015, dated 2018):

Legend:
Format in all cases: binding
[1] = target: Recombinant human integrin α8β1 (Homo sapiens (Human), UniProt P05556+P53708); assay: Solid Phase Receptor Assay (SPRA) for α8β1 function; conditions: mouse nephronectin-coated plate
Procedure: 7. Solid Phase Receptor Assay (SPRA) for α8β1 Function
Recombinant mouse nephronectin protein (R&D Systems, Inc, 4298-NP) diluted to 1 μg/mL in TBS+ buffer (25 mM Tris pH 7.4, 137 mM NaCl, 2.7 mM KCl, 1 mM CaCl2, 1 mM MgCl2, 1 mM MnCl2) was added to wells (50 μl/well) of a 96-well half-well transparent microtiter plate (Greiner 675061), and incubated overnight at 4° C. Wells were washed 3 times with 150 μL TBS+ and 150 μL of blocking buffer (TBS+ with 1% bovine serum albumin, Sigma A7906) were added. The plate was incubated for 1 hr at 37° C. and then washed 3× with TBS+. Recombinant human integrin α8β1 (R&D Systems, pre-launch) was diluted to 0.25 μg/mL in TBS+/0.1% bovine serum albumin. Compounds were diluted 1:100 into the integrin solution and 50 μL added to empty wells of the washed nephronectin-coated plate according to a standard template with each sample repeated in triplicate. After incubation for two hours at room temperature, the plate was washed 3× with 150 μL of TBS+. To each well, 50 μL of biotinylated anti-β antibody (R&D Systems, BAF1778) at 0.5 μg/mL in TBS+/0.1% BSA were added and the plate was covered and incubated for 1 hr at room temperature. After washing the plate 3× with 150 μL of TBS+ buffer, 50 μL of streptavidin-conjugated horseradish peroxidase (R&D Systems, DY998) diluted in TBS+ blocking buffer were added to the wells and the plate incubated for 20 min at room temperature. The plate was washed 3× with TBS+ followed by 50 μL of TMB substrate (Sigma T4444) added to each well and the plate incubated for 20 min at room temperature. Plates were read by colorimetric detection at 650 nm wavelength using a Tecan Safire II plate reader. Concentration-response curves were constructed by non-linear regression (best fit) analysis, and IC50 values were calculated for each compound.

[2] = target: Recombinant human integrin αvβ3 (Homo sapiens (Human), UniProt P05106+P06756); assay: Solid Phase Receptor Assay (SPRA) for αvβ3 function; conditions: vitronectin-coated plate
Recombinant human integrin αvβ3, sequence (P06756 31-992): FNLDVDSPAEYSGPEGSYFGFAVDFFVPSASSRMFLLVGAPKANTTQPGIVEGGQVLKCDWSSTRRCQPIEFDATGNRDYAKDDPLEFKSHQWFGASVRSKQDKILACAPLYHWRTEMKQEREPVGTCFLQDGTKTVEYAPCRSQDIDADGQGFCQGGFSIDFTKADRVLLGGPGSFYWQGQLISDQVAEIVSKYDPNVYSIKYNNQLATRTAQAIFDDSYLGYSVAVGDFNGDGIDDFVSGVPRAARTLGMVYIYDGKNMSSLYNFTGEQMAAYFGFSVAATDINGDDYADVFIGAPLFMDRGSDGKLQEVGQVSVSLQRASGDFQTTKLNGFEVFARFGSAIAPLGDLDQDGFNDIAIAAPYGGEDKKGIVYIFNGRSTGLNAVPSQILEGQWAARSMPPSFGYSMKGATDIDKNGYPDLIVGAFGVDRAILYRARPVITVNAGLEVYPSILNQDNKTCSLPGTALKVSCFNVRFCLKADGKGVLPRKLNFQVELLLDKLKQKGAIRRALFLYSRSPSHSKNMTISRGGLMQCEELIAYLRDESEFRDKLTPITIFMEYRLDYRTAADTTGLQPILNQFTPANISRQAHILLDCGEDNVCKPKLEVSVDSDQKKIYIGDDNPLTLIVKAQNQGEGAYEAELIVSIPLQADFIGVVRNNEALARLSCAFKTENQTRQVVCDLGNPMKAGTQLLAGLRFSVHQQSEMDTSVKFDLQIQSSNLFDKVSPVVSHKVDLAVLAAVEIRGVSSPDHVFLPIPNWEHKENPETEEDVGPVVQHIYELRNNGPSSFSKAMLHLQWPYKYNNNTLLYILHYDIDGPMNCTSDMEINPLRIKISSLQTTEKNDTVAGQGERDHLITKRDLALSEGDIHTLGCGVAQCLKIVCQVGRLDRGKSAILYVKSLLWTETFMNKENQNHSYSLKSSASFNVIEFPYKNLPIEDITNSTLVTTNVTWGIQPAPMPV
Recombinant human integrin αvβ3, sequence (P05106 27-718): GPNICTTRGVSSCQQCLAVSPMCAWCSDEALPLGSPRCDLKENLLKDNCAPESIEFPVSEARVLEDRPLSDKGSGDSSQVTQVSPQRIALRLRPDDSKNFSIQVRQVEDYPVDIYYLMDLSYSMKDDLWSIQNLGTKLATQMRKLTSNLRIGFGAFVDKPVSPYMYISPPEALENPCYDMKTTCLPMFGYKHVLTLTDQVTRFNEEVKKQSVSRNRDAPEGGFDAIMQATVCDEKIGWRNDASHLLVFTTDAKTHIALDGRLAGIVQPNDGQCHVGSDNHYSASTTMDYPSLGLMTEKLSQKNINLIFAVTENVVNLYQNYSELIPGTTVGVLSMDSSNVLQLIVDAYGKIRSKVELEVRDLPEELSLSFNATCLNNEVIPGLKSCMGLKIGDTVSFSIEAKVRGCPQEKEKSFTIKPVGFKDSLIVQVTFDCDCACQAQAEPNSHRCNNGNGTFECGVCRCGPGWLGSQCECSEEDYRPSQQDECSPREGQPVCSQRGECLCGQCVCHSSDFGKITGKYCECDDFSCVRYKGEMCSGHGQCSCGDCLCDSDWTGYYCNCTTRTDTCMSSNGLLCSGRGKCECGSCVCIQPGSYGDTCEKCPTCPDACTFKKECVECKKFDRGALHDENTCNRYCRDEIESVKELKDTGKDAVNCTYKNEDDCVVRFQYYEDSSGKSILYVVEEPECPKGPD
Procedure: 3. Solid Phase Receptor Assay (SPRA) for αvβ3 Function
Recombinant human vitronectin (R& D Systems, 2308-VN) diluted to 1 μg/mL in TBS+ buffer (25 mM Tris pH 7.4, 137 mM NaCl, 2.7 mM KCl, 1 mM CaCl2, 1 mM MgCl2, 1 mM MnCl2) was added to wells (50 μL/well) of a 96-well half-well transparent microtiter plate (Greiner 675061) and incubated overnight at 4° C. Wells were washed 3 times with 150 μL TBS+ and 150 μL of blocking buffer (TBS+ with 1% bovine serum albumin, Sigma A7906) were added. The plate was incubated for 1 hr at 37° C. and then washed 3× with TBS+ buffer. Recombinant human integrin αvβ3 (R&D Systems, 3050-AV) was diluted to 1 μg/mL in TBS+/0.1% bovine serum albumin. Compounds were diluted 1:100 into the integrin solution and then 50 μL added to empty wells of the washed vitronectin-coated plate according to a standard template with each sample repeated in triplicate. After incubation for two hours at room temperature, the plate was washed 3× with 150 μL of TBS+ buffer. To each well, 50 μL of biotinylated anti-αv antibody (R&D Systems, BAF1219) at 0.5 μg/mL in TBS+/0.1% BSA were added and the plate covered and incubated for 1 hr at room temperature. After washing the plate 3× with 150 μL of TBS+ buffer, 50 μL of streptavidin-conjugated horseradish peroxidase (R&D Systems, DY998) diluted in TBS+ blocking buffer were added to the wells and the plate incubated for 20 min at room temperature. The plate was washed 3× with TBS+ buffer followed by 50 μL of TMB substrate (Sigma, T4444) added to each well and the plate was incubated for 20 min at room temperature. Plates were read by colorimetric detection at 650 nm wavelength using a Tecan Safire II plate reader. Concentration-response curves were constructed by non-linear regression (best fit) analysis, and IC50 values were calculated for each compound.

[3] = target: Recombinant human integrin αvβ5 (Homo sapiens (Human), UniProt P06756+P18084); assay: Solid Phase Receptor Assay (SPRA) for αvβ5 function; conditions: vitronectin-coated plate
Recombinant human integrin αvβ5, sequence (P06756 31-992): as the sequence (P06756 31-992) above
Recombinant human integrin αvβ5, sequence (P18084 24-719): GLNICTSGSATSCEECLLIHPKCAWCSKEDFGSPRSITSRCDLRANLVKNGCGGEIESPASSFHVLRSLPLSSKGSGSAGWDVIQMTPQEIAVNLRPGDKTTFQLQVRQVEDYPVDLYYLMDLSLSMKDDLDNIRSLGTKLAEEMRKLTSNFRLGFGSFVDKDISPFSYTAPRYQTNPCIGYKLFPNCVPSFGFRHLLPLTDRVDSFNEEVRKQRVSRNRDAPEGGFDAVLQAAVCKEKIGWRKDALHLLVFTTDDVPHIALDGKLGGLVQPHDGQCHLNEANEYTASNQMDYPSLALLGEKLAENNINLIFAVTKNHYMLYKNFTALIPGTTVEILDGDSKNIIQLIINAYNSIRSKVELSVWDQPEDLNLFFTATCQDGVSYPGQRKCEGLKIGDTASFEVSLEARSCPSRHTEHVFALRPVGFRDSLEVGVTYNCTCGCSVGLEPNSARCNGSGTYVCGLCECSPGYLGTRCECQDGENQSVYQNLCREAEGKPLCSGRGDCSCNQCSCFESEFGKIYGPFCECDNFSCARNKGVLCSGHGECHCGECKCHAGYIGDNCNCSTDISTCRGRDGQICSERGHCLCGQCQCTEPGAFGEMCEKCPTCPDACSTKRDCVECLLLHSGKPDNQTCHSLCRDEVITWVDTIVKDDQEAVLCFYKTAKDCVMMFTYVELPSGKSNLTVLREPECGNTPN
Procedure: 4. Solid Phase Receptor Assay (SPRA) for αvβ5 Function
Recombinant human vitronectin (R&D Systems, 2308-VN) at 0.25 μg/mL in TBS+ buffer (25 mM Tris pH 7.4, 137 mM NaCl, 2.7 mM KCl, 1 mM CaCl2, 1 mM MgCl2, 1 mM MnCl2) was added to wells (50 μL/well) of a 96-well half-well transparent microtiter plate (Greiner 675061) and incubated overnight at 4° C. Wells were washed 3 times with 150 μL TBS+ and 150 μL of blocking buffer (TBS+ with 1% bovine serum albumin, Sigma A7906) were added. The plate was incubated for 1 hr at 37° C. and then washed 3× with TBS+ buffer. Recombinant human integrin αvβ5 (R&D Systems, 2528-AV) was diluted to 0.1 μg/mL in TBS+/0.1% bovine serum albumin. Compounds were diluted 1:100 into the integrin solution and then 50 μL added to empty wells of the washed vitronectin-coated plate according to a standard template with each sample repeated in triplicate. After incubation for two hours at room temperature, the plate was washed 3× with 150 μL of TBS+ buffer. To each well, 50 μl of biotinylated anti-αv antibody (R&D Systems, BAF1219) at 0.5 μg/mL in TBS+/0.1% BSA at 0.5 μg/mL were added and the plate covered and incubated for 1 hr at room temperature. After washing the plate 3× with 150 μL of TBS+ buffer, 50 μL of streptavidin-conjugated horseradish peroxidase (R&D Systems DY998) diluted in TBS+ blocking buffer were added to the wells and the plate incubated for 20 min at room temperature. The plate was washed 3× with TBS+ buffer followed by 50 μL of TMB substrate (Sigma T4444) added to each well and the plate incubated for 20 min at room temperature. Plates were read by colorimetric detection at 650 nm wavelength using a Tecan Safire II plate reader. Concentration-response curves were constructed by non-linear regression (best fit) analysis, and IC50 values were calculated for each compound.

Recombinant human integrin α8β1, sequence (P53708 39-1012): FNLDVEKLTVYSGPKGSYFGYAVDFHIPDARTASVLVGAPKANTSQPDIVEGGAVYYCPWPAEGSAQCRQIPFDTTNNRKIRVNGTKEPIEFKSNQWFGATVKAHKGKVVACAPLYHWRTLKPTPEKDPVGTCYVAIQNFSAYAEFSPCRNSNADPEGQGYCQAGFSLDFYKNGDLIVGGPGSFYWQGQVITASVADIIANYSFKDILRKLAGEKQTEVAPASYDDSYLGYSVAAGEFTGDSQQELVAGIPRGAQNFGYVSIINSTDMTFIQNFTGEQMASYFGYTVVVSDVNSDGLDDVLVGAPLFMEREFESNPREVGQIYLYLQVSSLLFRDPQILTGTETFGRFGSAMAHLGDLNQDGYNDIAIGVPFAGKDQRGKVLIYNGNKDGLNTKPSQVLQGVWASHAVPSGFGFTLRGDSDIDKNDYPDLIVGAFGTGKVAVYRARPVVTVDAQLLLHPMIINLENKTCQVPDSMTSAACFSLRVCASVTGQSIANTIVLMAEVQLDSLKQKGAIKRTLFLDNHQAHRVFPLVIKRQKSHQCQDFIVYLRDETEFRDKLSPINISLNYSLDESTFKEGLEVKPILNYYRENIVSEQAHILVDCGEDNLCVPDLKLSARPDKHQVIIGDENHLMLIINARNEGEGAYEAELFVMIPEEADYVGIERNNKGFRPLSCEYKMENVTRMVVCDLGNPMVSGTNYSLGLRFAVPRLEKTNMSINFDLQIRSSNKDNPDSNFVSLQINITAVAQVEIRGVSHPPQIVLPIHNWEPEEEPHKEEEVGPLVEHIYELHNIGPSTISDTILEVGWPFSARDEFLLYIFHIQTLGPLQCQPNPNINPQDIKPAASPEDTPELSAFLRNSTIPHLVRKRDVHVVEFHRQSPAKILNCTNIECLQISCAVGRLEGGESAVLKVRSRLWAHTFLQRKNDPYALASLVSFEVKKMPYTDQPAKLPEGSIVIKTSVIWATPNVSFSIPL
Recombinant human integrin α8β1, sequence (P05556 21-728): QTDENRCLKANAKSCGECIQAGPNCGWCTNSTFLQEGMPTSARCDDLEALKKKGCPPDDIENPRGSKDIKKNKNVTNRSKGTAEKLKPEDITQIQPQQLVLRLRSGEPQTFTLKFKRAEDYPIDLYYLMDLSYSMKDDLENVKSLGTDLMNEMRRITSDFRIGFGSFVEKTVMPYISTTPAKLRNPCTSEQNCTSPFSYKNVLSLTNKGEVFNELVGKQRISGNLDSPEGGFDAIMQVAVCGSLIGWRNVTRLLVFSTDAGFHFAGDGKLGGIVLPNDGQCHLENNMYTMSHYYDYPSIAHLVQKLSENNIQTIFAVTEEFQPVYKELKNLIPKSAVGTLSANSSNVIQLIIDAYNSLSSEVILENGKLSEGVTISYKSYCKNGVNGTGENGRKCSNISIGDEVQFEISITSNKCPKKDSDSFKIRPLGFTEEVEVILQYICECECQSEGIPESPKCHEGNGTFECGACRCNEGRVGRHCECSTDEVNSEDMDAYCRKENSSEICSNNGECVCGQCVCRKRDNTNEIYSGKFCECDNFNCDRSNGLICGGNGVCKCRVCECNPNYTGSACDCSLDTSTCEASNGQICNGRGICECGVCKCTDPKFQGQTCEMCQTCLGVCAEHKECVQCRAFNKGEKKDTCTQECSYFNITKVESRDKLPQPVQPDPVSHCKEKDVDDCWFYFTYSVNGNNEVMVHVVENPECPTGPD

| SMILES | IC50 [1] [nM] | IC50 [2] [nM] | IC50 [3] [nM] |
| --- | --- | --- | --- |
| O=C(O)C[C@H](NC(=O)CNC(=O)c1cc(O)cc(NC2=NCC(O)CN2)c1)c1cc(Cl)cc(OC(F)(F)F)c1 (stereo partly drawn) [Example 16, (3S)-3-[3-chloro-5-(trifluoromethoxy)phenyl)-3-(2-(3-hydroxy-5-((5-hydroxy-1,4,5,6-tetrahydropyrimidin-2-yl)amino)benzamido)acetamido)propanoic acid] | 0.5 | 3 ± 0.3 | 0.6 |
| O=C(O)C[C@H](NC(=O)CNC(=O)c1cc(O)cc(NC2=NCC(O)CN2)c1)c1cc(Br)cc(OC(F)(F)F)c1 (stereo partly drawn) [Example 17, (3S)-3-(3-bromo-5-(trifluoromethoxy)phenyl)-3-(2-(3-hydroxy-5-((5-hydroxy-1,4,5,6-tetrahydropyrimidin-2-yl)amino)benzamido)acetamido)propanoic acid] | 0.7 | 2.8 ± 1.1 | 0.6 |
| O=C(O)C[C@H](NC(=O)CNC(=O)c1cc(O)cc(NC2=NCC(O)CN2)c1)c1cc(Cl)cc(Br)c1O (stereo partly drawn) [Example C1, reference compound] | 8 ± 2 | 5 ± 2 | 3 ± 1 |
| O=C(O)C[C@H](NC(=O)CNC(=O)c1cc(O)cc(NC2=NCC(O)CN2)c1)c1ccccc1 (stereo partly drawn) [Example C2, reference compound] | 3 | 3 | 0.4 |
| O=C(O)CC(NC(=O)CNC(=O)c1cc(O)cc(NC2=NCC(O)CN2)c1)c1cc(Cl)cc(Cl)c1O (stereo not drawn) [Example C3, reference compound] | 14 | 2 | 2 |
| Cc1cc(C)cc(C(CC(=O)O)NC(=O)CNC(=O)c2cccc(NC(=N)N)c2)c1 (stereo not drawn) [Example C4, reference compound] | 63 | 4 | 2 |
| N=C(N)Nc1cccc(C(=O)NCC(=O)NC(CC(=O)O)c2ccccc2)c1 (stereo not drawn) [Example C5, reference compound] | 383 | 4 | 1 |
| Cc1ccc(O)c(C(CC(=O)O)NC(=O)CNC(=O)c2cc(O)cc(NC3=NCC(O)CN3)c2)c1 (stereo not drawn) [Example C6, reference compound] | 17 | 6 | 1 |
| O=C(O)CC(NC(=O)CNC(=O)c1cc(O)cc(NC2=NCC(O)CN2)c1)c1cc(Br)cc(Br)c1O (stereo not drawn) [Example C7, reference compound] | 26 | 11 | 25 |
| Cc1ccc(O)c(C(CC(=O)O)NC(=O)CNC(=O)c2cccc(NC(=N)N)c2)c1 (stereo not drawn) [Example C8, reference compound] | 594 | 5 | 5 |
| N=C(N)Nc1cccc(C(=O)NCC(=O)NC(CC(=O)O)c2cc(F)cc(C(F)(F)F)c2)c1 (stereo not drawn) [Example C9, reference compound] | 40 | 4 ± 1 | 0.4 |
| Cc1cc(Cl)cc([C@@H](CC(=O)O)NC(=O)CNC(=O)c2cc(O)cc(NC3=NCC(O)CN3)c2)c1O (stereo partly drawn) [Example C10, reference compound] | 10 | 6 | 2 |
| Cc1cc(Cl)cc([C@@H](CC(=O)O)NC(=O)CNC(=O)c2cccc(NC3=NCCN3)c2)c1O [Example C11, reference compound] | 17 | 9 | 2 |
